{
  "source": "patent US5545672A",
  "about": "“Treatment of insulin resistance and type 2 diabetes mellitus with a thiol protease inhibitor” (The University of Texas System, priority 1994, dated 1996)",
  "key": {"[1]": {"tested_on": "insulin receptor β subunit", "experiment": "Insulin-induced proteolysis of insulin receptor β subunit, quantitative immunoblot of membranes and cytosol", "format": "cell-based", "settings": "3T3-C2 fibroblasts, 4 h; for β' FRAGMENT % IN CYTOSOL: normalized to maximum β' after eight hours of insulin", "protocol": "Cell monolayers were scraped into 10 mM triethanolamine, 10 mM acetic acid, 1 mM EDTA, pH 7.4. The cells were disrupted in a Dounce homogenizer and subjected to centrifugation at 265,000×g, 70 min. at 4° C. The pellet was retained as cellular membranes and the supernatant was collected as the cytosolic fraction.\nThe cellular membranes were detergent-extracted and the extracts were subjected to SDS polyacrylamide gel electrophoresis on a 7.5% gel to resolve the intact β subunit (approximate mass 92 kDa).\nTransfer of the cellular proteins from the 7.5% acrylamide gel to nitrocellulose was conducted at 18 V for 18 h, and the intact β subunit and β' fragment were detected as previously described (Knutson and Buck, Arch. Biochem. Biophys., 285:197-204, 1991). Briefly, following transfer, the nitrocellulose was blocked by incubation for 1 h with blot buffer (50 mM Tris, 0.2M NaCl, pH 8) containing 4% non-fat dry milk. Following blocking, the nitrocellulose was incubated with an anti-peptide antibody which specifically recognizes the carboxy-terminal 16 amino acid residues of the insulin receptor β subunit. This domain is contained in both the intact β subunit and the β' fragment. This antibody has been fully characterized and affinity purified (Knutson and Buck, ibid.). The antibody concentration was 5 μg/ml in blot buffer containing 1% non-fat dry milk, and the incubation was allowed to proceed for 2 h at room temperature. The unbound antibody was then removed from the nitrocellulose by 3 washes with blot buffer containing 1% non-fat dry milk and 0.05% Tween-20. The nitrocellulose was then incubated with ^125 I-protein A, 0.1 μCi/ml, with the blot buffer containing 1% non-fat dry milk, for 1 h at room temperature. Following a final 5 washes of the nitrocellulose with blot buffer-1% dry milk-0.05% Tween-20, the nitrocellulose was exposed to X-ray film. Autoradiographic intensities were quantitated by densitometric scanning.\nCytosolic β' fragment (approximate mass 61 kDa) was isolated by subjecting the […] to high speed centrifugation, removing the supernatant, subjecting the supernatant to SDS polyacrylamide gel electrophoresis on a 7.5% gel, transferring the cytosolic proteins to nitrocellulose, and detecting the cytosolic β' fragment by quantitative immunoblot (Western blot) analysis as described above. The β' fragment data was normalized to the maximum level of β' fragment detected after eight hours of insulin treatment. The above-described procedure is as described in Knutson, V. P., J. Biol. Chem., 266:15656-15662 (1991)."}, "[2]": {"tested_on": "3T3-L1 adipocytes", "experiment": "Insulin resistance in adipocytes: 14C-glucose incorporation into cellular lipid (lipogenesis)", "format": "cell-based", "settings": "for insulin resistance (insulin stimulation of lipogenesis after preincubation): 3T3-L1 adipocytes, 9 h preincubation with insulin 1.7 μM alone or with E-64 100 μM; for cpm INCORPORATED: 9 h pretreatment (insulin 1.7 μM alone, or insulin 1.7 μM + E-64 100 μM); for FOLD STIMULATION: pretreatment as above", "protocol": "Intact monolayers of 3T3-L1 adipocytes were preincubated in the absence of insulin (control) or for nine hours in the presence of 1.7 μM insulin to induce cellular insulin resistance. […] Following preincubation, the treated monolayers were extensively washed to remove any insulin present from the preincubation period. The monolayers were then incubated with insulin, 0, 0.05, or 10 nM for 30 minutes, followed by the addition of 14C-glucose at a final concentration of 25 mM. Incorporation of the radiolabeled glucose proceeded for 30 minutes, after which the cells were washed, lysed, and the cellular lipids extracted into chloroform:methanol (2:1). The amount of radiolabel incorporated into the cellular lipid was then quantified by liquid scintillation counting, and the results are shown in Table 2. This assay procedure is described in Tarlow et al., J. Cell Biol., 73:332-353, 1977."}, "[3]": {"tested_on": "Zucker fatty rats", "settings": "for SERUM TG: Zucker fatty rats", "source_text": "(§1) The injection protocol was initiated when the rats were 14 weeks old, a time when their insulin resistant state was fully manifest. Blood was drawn from the animals at intervals before the beginning of the injection schedule, and at at least one week intervals after initiating the injections. On the first day of the protocol, the fatty rats weighed an average of 416 grams."}, "[4]": {"tested_on": "lean Zucker rats", "settings": "2.5 mg/kg I.P. every 24 h, data not shown", "source_text": "as §1"}, "[5]": {"tested_on": "insulin receptor β subunit", "settings": "cultured cells chronically treated with high insulin; Knutson, J. Biol. Chem. 266, 1991; cited from earlier work"}, "[6]": {"settings": "agent alone (insulin 1.7 μM; leupeptin 10 μg/ml; E-64 100 μM), control 100 ± 13"}},
  "note": "Entries after “also recorded” stand apart in the source; their conditions may differ. Like-named read-outs stand apart in the source and are kept apart here.",
  "data": [
    {"compound": "CC(C)C[C@H](NC(=O)[C@H]1O[C@@H]1C(=O)O)C(=O)NCCCCN=C(N)N", "note": "[E-64, L-transepoxysuccinyl-leucylamido (4-guanidino) butane]", "values": [
      {"measurement": "β SUBUNIT % IN MEMBRANES", "setting": "[1]; [6]", "value": "143 ± 7", "unit": "%"},
      {"measurement": "β' FRAGMENT % IN CYTOSOL", "setting": "[1]; agent alone, control 8 ± 5", "value": "Trace"},
      {"measurement": "β' FRAGMENT % IN CYTOSOL", "setting": "[1]; inhibitor + insulin 1.7 μM", "value": "Not detectable; also recorded: non-detectable"},
      {"measurement": "insulin resistance (insulin stimulation of lipogenesis after preincubation)", "setting": "[2]", "value": "ameliorated"},
      {"measurement": "cpm INCORPORATED", "setting": "[2]; then insulin 0 nM", "value": 600, "unit": "cpm"},
      {"measurement": "cpm INCORPORATED", "setting": "[2]; then insulin 0.05 nM", "value": 1100, "unit": "cpm"},
      {"measurement": "cpm INCORPORATED", "setting": "[2]; then insulin 10 nM", "value": 3100, "unit": "cpm"},
      {"measurement": "FOLD STIMULATION", "setting": "[2]; insulin 0 nM (baseline)", "value": 1, "unit": "fold"},
      {"measurement": "FOLD STIMULATION", "setting": "[2]; insulin 0.05 nM", "value": 1.8, "unit": "fold"},
      {"measurement": "FOLD STIMULATION", "setting": "[2]; insulin 10 nM", "value": 5.2, "unit": "fold"},
      {"measurement": "effect on the increase in triglyceride levels found in control Zucker fatty rats", "setting": "[3]; 2.5 mg/kg I.P. every 24 h", "value": "prevented the increase"},
      {"measurement": "effect on insulin resistant state in Zucker fatty rats", "setting": "[3]; 2.5 mg/kg I.P. every 24 h, 90 days", "value": "reduced but did not reverse"},
      {"measurement": "SERUM TG", "setting": "[3]; 2.5 mg/kg I.P. every 24 h, day 28, n = 3", "value": "798 ± 269", "unit": "mg/dL"},
      {"measurement": "SERUM TG", "setting": "[3]; 2.5 mg/kg I.P. every 24 h, day 56, n = 3", "value": "1045 ± 443", "unit": "mg/dL"},
      {"measurement": "SERUM TG", "setting": "[3]; 2.5 mg/kg I.P. every 24 h, day 89, n = 3", "value": "1093 ± 301", "unit": "mg/dL"},
      {"measurement": "SERUM TG", "setting": "[3]; day -4 of protocol (before injections), n = 3", "value": "1009 ± 157", "unit": "mg/dL"},
      {"measurement": "effect on triglyceride levels in lean rats", "setting": "[4]", "value": "no effect"},
      {"measurement": "production of the insulin receptor fragment β'", "setting": "[5]", "value": "inhibited"}
    ]},
    {"compound": "insulin", "values": [
      {"measurement": "β SUBUNIT % IN MEMBRANES", "setting": "[1]; [6]", "value": "80 ± 7", "unit": "%"},
      {"measurement": "β SUBUNIT % IN MEMBRANES", "setting": "[1]; agent alone (insulin 1.7 μM; leupeptin 10 μg/ml; E-64 100 μM), control 100 ± 13, listed as insulin", "value": "decreased"},
      {"measurement": "β' FRAGMENT % IN CYTOSOL", "setting": "[1]; agent alone, control 8 ± 5", "value": "62 ± 6", "unit": "%"},
      {"measurement": "β' FRAGMENT % IN CYTOSOL", "setting": "[1]; agent alone, control 8 ± 5, listed as insulin", "value": "increased"},
      {"measurement": "insulin resistance (insulin stimulation of lipogenesis after preincubation)", "setting": "[2]", "value": "no subsequent stimulation of lipogenesis"},
      {"measurement": "cpm INCORPORATED", "setting": "[2]; then insulin 0 nM", "value": 1600, "unit": "cpm"},
      {"measurement": "cpm INCORPORATED", "setting": "[2]; then insulin 0.05 nM", "value": 1900, "unit": "cpm"},
      {"measurement": "cpm INCORPORATED", "setting": "[2]; then insulin 10 nM", "value": 1800, "unit": "cpm"},
      {"measurement": "FOLD STIMULATION", "setting": "[2]; insulin 0 nM (baseline)", "value": 1, "unit": "fold"},
      {"measurement": "FOLD STIMULATION", "setting": "[2]; insulin 0.05 nM", "value": 1.2, "unit": "fold"},
      {"measurement": "FOLD STIMULATION", "setting": "[2]; insulin 10 nM", "value": 1.1, "unit": "fold"}
    ]},
    {"compound": "CC(=O)N[C@@H](CC(C)C)C(=O)N[C@@H](CC(C)C)C(=O)N[C@H](C=O)CCCNC(=N)N", "note": "[Leupeptin, leupeptin]", "values": [
      {"measurement": "β SUBUNIT % IN MEMBRANES", "setting": "[1]; [6]", "value": "97 ± 7", "unit": "%"},
      {"measurement": "β' FRAGMENT % IN CYTOSOL", "setting": "[1]; agent alone, control 8 ± 5", "value": "Trace"},
      {"measurement": "β SUBUNIT % IN MEMBRANES", "setting": "[1]; inhibitor + insulin 1.7 μM (leupeptin 10 μg/ml; E-64 100 μM)", "value": "120 ± 17", "unit": "%"},
      {"measurement": "β SUBUNIT % IN MEMBRANES", "setting": "[1]; inhibitor + insulin 1.7 μM (leupeptin 10 μg/ml; E-64 100 μM), listed as leupeptin", "value": "prevented insulin-induced loss"},
      {"measurement": "β' FRAGMENT % IN CYTOSOL", "setting": "[1]; inhibitor + insulin 1.7 μM", "value": "Not detectable"},
      {"measurement": "β' FRAGMENT % IN CYTOSOL", "setting": "[1]; inhibitor + insulin 1.7 μM, listed as leupeptin", "value": "prevented generation"}
    ]}
  ]
}
